Measured values taken from US11000033B2, “Ketone or oxime compound, and herbicide” (NISSAN CHEMICAL CORPORATION, priority 2014, dated 2021).

Key:
Format in all cases: in vivo
rapeseed = experiment: Test Example 5: effect on crop by foliage application, plastic box (symbol g); settings: 320 g/ha, 3 weeks after application
Outline: (§1)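 Diluvial soil, sterilized and boxed (21 × 13 × 7 cm), received spot-sown seed covered by about 1.5 cm soil; plants were then greenhouse-grown at 25–30° C.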

Digitaria ciliaris = experiment: Test Example 5: herbicidal effect by foliage application, plastic box (symbol F); settings: 320 g/ha, 3 weeks after application
Outline: (§2)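 Greenhouse foliar test: seedlings at 14 days, grown 25° C. to 30° C. in sterilized diluvial soil; compound applied as an aqueous dilution of an emulsion; response read 3 weeks after spraying.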

Cyperus difformis = experiment: Test Example 3: herbicidal effect by foliage application, Wagner pot (symbol E); settings: application herbicide amount 320 g/ha
Outline: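 Rating at 3 weeks post-spray, by defined criteria. Treatment: emulsion diluted with water to a predetermined amount, applied evenly to foliage of 14-day-old plants raised in alluvial soil flooded 0.1–0.5 cm deep at 25–30 °C, rice co-sown.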

Apera spica-venti = experiment: Test Example 5: herbicidal effect by foliage application, plastic box (symbol L); settings: 320 g/ha, 3 weeks after application
Outline: as §2

[1] = test system: directly sowed rice plant; experiment: Test Example 3: effect on crop by foliage application, Wagner pot (symbol b); settings: application herbicide amount 320 g/ha
Outline: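 Alluvial soil in a 1/10000-are Wagner pot was flooded to a water depth of 0.1–0.5 cm. Echinochloa crus-galli var. crus-galli, Leptochloa chinensis, Cyperus difformis and rice were sown into it and grown in a greenhouse at 25–30 °C.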

[2] = test system: Echinochloa crus-galli var. crus-galli; experiment: Test Example 4: herbicidal effect by soil treatment (symbol H)
Outline: (§3)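 Seeds were sown in sterilized diluvial soil, covered with about 1.5 cm of soil, and the soil surface was sprayed with a water-diluted emulsion of the compound at a predetermined rate. Plants grew in a greenhouse at 25° C. to 30° C.; effects were scored visually 3 weeks after application.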

[3] = test system: Echinochloa oryzacola Vasing.; experiment: Test Example 1: herbicidal activity, application before weed generation in submerged conditions (symbol A); settings: application herbicide amount 320 g/ha
Outline: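 Greenhouse growth at 25–30 °C lasted 3 weeks after treatment, when each weed was graded 0–5 by herbicidal ratio. Treatment was a diluted emulsion applied to the water surface of 4 cm-submerged alluvial soil on the sowing day.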

Stellaria media [4] = experiment: Test Example 5: herbicidal effect by foliage application, plastic box (symbol P); settings: 320 g/ha, 3 weeks after application
Outline: as §2

[5] = test system: Echinochloa oryzacola Vasing.; experiment: Test Example 2: herbicidal activity, application during weed generation in submerged conditions (symbol A); settings: Table 23; application herbicide amount 320 g/ha; grade 0-5 by criteria of Test Example 1
Outline: (§4)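 Flooded-soil post-emergence test: emulsion of compound, water-diluted to target rate, applied to paddy water surface at 1–2 leaf stage of mixed-sown weeds (alluvial soil, 4 cm water, 25–30° C. greenhouse); visual rating 3 weeks after application.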

rice plant = experiment: Test Example 5: effect on crop by foliage application, plastic box (symbol b); settings: 320 g/ha, 3 weeks after application
Outline: as §1

Stellaria media [6] = experiment: Test Example 4: herbicidal effect by soil treatment (symbol P)
Outline: as §3

Abutilon theophrasti = experiment: Test Example 4: herbicidal effect by soil treatment (symbol M)
Outline: as §3

Monochoria vaginalis = experiment: Test Example 2: herbicidal activity, application during weed generation in submerged conditions (symbol C); settings: Table 23; application herbicide amount 320 g/ha; grade 0-5 by criteria of Test Example 1
Outline: as §4

Avena fatua = experiment: Test Example 5: herbicidal effect by foliage application, plastic box (symbol I); settings: 320 g/ha, 3 weeks after application
Outline: as §2

[7] = application herbicide amount 320 g/ha

SMILES	g: rapeseed, effect on crop grade (rapeseed)	F: Digitaria ciliaris, herbicidal effect grade (Digitaria ciliaris)	herbicidal effect on E, grade 0-5 (Cyperus difformis)	L: Apera spica-venti, herbicidal effect grade (Apera spica-venti)	effect on crop b (directly sowed rice plant), grade 0-5 [1]	H: Echinochloa crus-galli var. crus-galli, herbicidal effect grade [2, 7]	Herbicidal effect grade, A: Echinochloa oryzacola Vasing. [3]	P: Stellaria media, herbicidal effect grade (Stellaria media [4])	Herbicidal effect grade, A: Echinochloa oryzacola Vasing. [5]	b: directly sowed rice plant, effect on crop grade (rice plant)	P: Stellaria media, herbicidal effect grade (Stellaria media [6]; [7])	M: Abutilon theophrasti, herbicidal effect grade (Abutilon theophrasti; [7])	Herbicidal effect grade, C: Monochoria vaginalis (Monochoria vaginalis)	I: Avena fatua, herbicidal effect grade (Avena fatua)	H: Echinochloa crus-galli var. crus-galli, herbicidal effect grade ([2]; 320 g/ha)	P: Stellaria media, herbicidal effect grade (Stellaria media [6]; 320 g/ha)	M: Abutilon theophrasti, herbicidal effect grade (Abutilon theophrasti; 320 g/ha)
CON=C(C)CC1CC(O)=C(c2c(C)cc(OCC(F)(F)F)cc2C)C1=O (stereo not shown) [6-049]	5 (Herbicidal ratio of 90% or more (almost completely withered))	5 (Herbicidal ratio of 90% or more (almost completely withered))	5 (Herbicidal ratio of 90% or more (almost completely withered))	5 (Herbicidal ratio of 90% or more (almost completely withered))	5 (Herbicidal ratio of 90% or more (almost completely withered))	5 (Herbicidal ratio of 90% or more (almost completely withered))	5 (Herbicidal ratio of 90% or more (almost completely withered))	5 (Herbicidal ratio of 90% or more (almost completely withered))	5 (Herbicidal ratio of 90% or more (almost completely withered))	5 (Herbicidal ratio of 90% or more (almost completely withered))	4 (Herbicidal ratio of 70% or higher and lower than 90%)	4 (Herbicidal ratio of 70% or higher and lower than 90%)	3 (Herbicidal ratio of 40% or higher and lower than 70%)	0 (Herbicidal ratio of 5% or lower (almost no effect))	–	–	–
CON=C(C)CC1CC(O)=C(c2c(C)cc(-c3ccc(Cl)nc3)cc2C)C1=O (mixture of isomers) [6-035]	4 (Herbicidal ratio of 70% or higher and lower than 90%)	5 (Herbicidal ratio of 90% or more (almost completely withered))	5 (Herbicidal ratio of 90% or more (almost completely withered))	5 (Herbicidal ratio of 90% or more (almost completely withered))	5 (Herbicidal ratio of 90% or more (almost completely withered))	5 (Herbicidal ratio of 90% or more (almost completely withered))	5 (Herbicidal ratio of 90% or more (almost completely withered))	3 (Herbicidal ratio of 40% or higher and lower than 70%)	5 (Herbicidal ratio of 90% or more (almost completely withered))	5 (Herbicidal ratio of 90% or more (almost completely withered))	3 (Herbicidal ratio of 40% or higher and lower than 70%)	0 (Herbicidal ratio of 5% or lower (almost no effect))	0 (Herbicidal ratio of 5% or lower (almost no effect))	5 (Herbicidal ratio of 90% or more (almost completely withered))	–	–	–
CON=C(C)CC1CC(OC(=O)N(C)c2ccccc2)=C(c2c(C)cc(C)cc2C)C1=O (stereo not shown) [1-159]	4 (Herbicidal ratio of 70% or higher and lower than 90%)	5 (Herbicidal ratio of 90% or more (almost completely withered))	4 (Herbicidal ratio of 70% or higher and lower than 90%)	5 (Herbicidal ratio of 90% or more (almost completely withered))	5 (Herbicidal ratio of 90% or more (almost completely withered))	–	5 (Herbicidal ratio of 90% or more (almost completely withered))	0 (Herbicidal ratio of 5% or lower (almost no effect))	4 (Herbicidal ratio of 70% or higher and lower than 90%)	3 (Herbicidal ratio of 40% or higher and lower than 70%)	–	–	3 (Herbicidal ratio of 40% or higher and lower than 70%)	5 (Herbicidal ratio of 90% or more (almost completely withered))	3 (Herbicidal ratio of 40% or higher and lower than 70%)	0 (Herbicidal ratio of 5% or lower (almost no effect))	0 (Herbicidal ratio of 5% or lower (almost no effect))
CON=C(C)CC1CC(O)=C(c2c(C)cc(C#CC3CC3)cc2C)C1=O (mixture of isomers) [6-010]	0 (Herbicidal ratio of 5% or lower (almost no effect))	5 (Herbicidal ratio of 90% or more (almost completely withered))	5 (Herbicidal ratio of 90% or more (almost completely withered))	5 (Herbicidal ratio of 90% or more (almost completely withered))	5 (Herbicidal ratio of 90% or more (almost completely withered))	5 (Herbicidal ratio of 90% or more (almost completely withered))	5 (Herbicidal ratio of 90% or more (almost completely withered))	0 (Herbicidal ratio of 5% or lower (almost no effect))	5 (Herbicidal ratio of 90% or more (almost completely withered))	5 (Herbicidal ratio of 90% or more (almost completely withered))	0 (Herbicidal ratio of 5% or lower (almost no effect))	3 (Herbicidal ratio of 40% or higher and lower than 70%)	0 (Herbicidal ratio of 5% or lower (almost no effect))	3 (Herbicidal ratio of 40% or higher and lower than 70%)	–	–	–
CON=C(C)CC1CC(OC(=O)c2ccc(S(C)(=O)=O)c(C(=O)OC)c2Cl)=C(c2c(C)cc(C)cc2C)C1=O (stereo not shown) [1-162]	4 (Herbicidal ratio of 70% or higher and lower than 90%)	5 (Herbicidal ratio of 90% or more (almost completely withered))	5 (Herbicidal ratio of 90% or more (almost completely withered))	5 (Herbicidal ratio of 90% or more (almost completely withered))	5 (Herbicidal ratio of 90% or more (almost completely withered))	–	5 (Herbicidal ratio of 90% or more (almost completely withered))	4 (Herbicidal ratio of 70% or higher and lower than 90%)	5 (Herbicidal ratio of 90% or more (almost completely withered))	5 (Herbicidal ratio of 90% or more (almost completely withered))	–	–	2 (Herbicidal ratio of 20% or higher and lower than 40%)	5 (Herbicidal ratio of 90% or more (almost completely withered))	5 (Herbicidal ratio of 90% or more (almost completely withered))	0 (Herbicidal ratio of 5% or lower (almost no effect))	5 (Herbicidal ratio of 90% or more (almost completely withered))
